Type in all cases: cell-based
For assay [1], the target named is T1, tyrosinase (Homo sapiens, UniProt P14679).
T1 sequence (P14679 19-529): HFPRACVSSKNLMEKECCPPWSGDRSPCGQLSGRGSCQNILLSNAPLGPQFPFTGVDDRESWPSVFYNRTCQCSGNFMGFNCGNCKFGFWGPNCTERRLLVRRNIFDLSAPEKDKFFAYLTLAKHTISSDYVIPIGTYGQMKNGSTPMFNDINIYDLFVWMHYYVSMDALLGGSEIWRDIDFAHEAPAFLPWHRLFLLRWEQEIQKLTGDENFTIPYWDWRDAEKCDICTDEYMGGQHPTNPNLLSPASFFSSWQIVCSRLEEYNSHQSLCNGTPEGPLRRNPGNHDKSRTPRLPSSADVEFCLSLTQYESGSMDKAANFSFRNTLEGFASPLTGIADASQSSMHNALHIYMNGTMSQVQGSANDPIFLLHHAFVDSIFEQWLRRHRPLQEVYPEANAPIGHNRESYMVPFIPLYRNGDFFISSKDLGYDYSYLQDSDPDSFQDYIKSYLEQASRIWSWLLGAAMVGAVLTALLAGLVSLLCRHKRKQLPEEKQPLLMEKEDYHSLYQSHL
Kind of assay: Activity of tyrosinase in Sk-mel-31 cells. To be noted: 10 μg to 1 pg, versus control group, FIG. 7. The protocol: (§1) In order to evaluate the effect of promoting black hair formation, the activity of tyrosinase was measured in Sk-mel-31, a human melanoma cell, and B16F10, a mouse melanoma cell. The cells were cultivated in an incubator at 37° C. (5% CO2 and 60% relative humidity) while maintaining a density of 1×10^6 cells/ml for Sk-mel-31 and 2×10^5 cells/ml for B16F10 in RPMI-1640 medium (containing 1% penicillin-streptomycin and 10% fetal bovine serum). The cells were stabilized in the incubator for 24 hours, and the culture medium containing FBS was replaced by FBS-free RPMI-1640. The cells were treated with mixed rare earth elements of 10 μg, 1 μg, 100 ng, 10 ng, 1 ng, 100 pg, […] and 1 pg, respectively, and individual rare earth elements of 10 ng. In order to measure the activity of tyrosinase, the cells were cultivated for a given time, centrifuged (100×g) for 10 minutes, and harvested. […] The cells were placed in an ice bath for one hour, and centrifuged with 40,000×g at 4° C. for 20 minutes to obtain a cell extract. 130 μl of 5 mM L-DOPA (L-3,4-dihydroxyphenylalanine) and 120 μl of 25 mM MBTH (3-methyl-2-benzothiazolinone hydrazone) were added to 250 μl of an analysis buffer containing 100 mM potassium phosphate (pH 7.1), 4% N,N-dimethylformamide and 0.1% (v/v) Triton X-100, and reacted in a thermostat at 37° C. for 5 minutes, and then, 100 μg of the cell extract was added thereto, and further reacted for 2 hours. Then, 500 μl of 1 M perchloric acid was added thereto and the mixture was centrifuged with 9,000×g at room temperature for 20 minutes. Then, the supernatant was taken and absorbance was measured at 505 nm.

Assay [2] has as its system B16F10, a mouse melanoma cell. Kind of assay: Melanin production in B16F10 cells. The note with it: mouse melanoma cell line; versus control group; FIG. 10. The procedure: (§2) Cells were cultivated according to the same process as in Experimental Example 6, and centrifuged (100×g) for 10 minutes to harvest the cells. In order to measure the production of melanin, 200 μg of the cell extract was added to 1 N NaOH (total 1 ml), allowed to stand at room temperature for 30 minutes, and then, absorbance was measured at 400 nm.
(§3) In order to measure the production of melanin, the cells were cultivated and harvested according to the same process as that of Experimental Example 6, and the production of melanin was measured according to the same process as that of Experimental Example 8.

In assay [3] the test system is tyrosinase. Kind of assay: Expression of tyrosinase in Sk-mel-31 cells by Western blotting. To be noted: human melanoma cell line; versus control group; FIG. 9. The procedure:
(§4) Cells were cultivated according to the same process as in Experimental Example 6, and centrifuged (100×g) for 10 minutes to harvest the cells. In order to measure the expression of tyrosinase by Western blotting, 100 μg of the cell extract was resolved on 10% SDS-PAGE, transferred to NC, and then, blocked with TBS containing 5% skim milk. Then, it was reacted with a primary antibody diluted to 1:2,500 (monoclonal anti-tyrosine hydroxylase clone Th-2) and a secondary antibody diluted to 1:5,000 (anti-mouse IgG), respectively, and washed with TBS containing 0.2% Tween-20, and then, photosensitized on an X-ray film using an ECL detection kit. Then, OD values were graphed using an image analysis program of LabWork™ (version 4.4.00.0).
For orientation: Immunoblotting shows a protein as a band on a membrane.

Assay [4] has as its target T2, tyrosinase (Mus musculus, UniProt P11344).
T2 sequence (P11344 19-533): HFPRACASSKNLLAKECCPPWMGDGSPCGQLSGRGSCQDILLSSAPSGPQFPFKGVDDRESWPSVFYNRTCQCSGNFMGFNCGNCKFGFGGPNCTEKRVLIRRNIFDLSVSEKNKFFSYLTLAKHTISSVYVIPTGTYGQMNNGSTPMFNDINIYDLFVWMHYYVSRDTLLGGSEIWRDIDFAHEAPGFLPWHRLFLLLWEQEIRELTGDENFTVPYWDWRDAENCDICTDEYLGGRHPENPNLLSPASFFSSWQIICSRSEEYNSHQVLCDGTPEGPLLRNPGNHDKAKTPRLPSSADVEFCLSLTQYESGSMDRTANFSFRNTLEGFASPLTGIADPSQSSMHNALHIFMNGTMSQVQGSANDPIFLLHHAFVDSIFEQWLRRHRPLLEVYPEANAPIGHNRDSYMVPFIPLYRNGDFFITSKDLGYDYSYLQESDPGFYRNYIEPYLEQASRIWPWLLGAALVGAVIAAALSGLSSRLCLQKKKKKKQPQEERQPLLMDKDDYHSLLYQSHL
Kind of assay: Activity of tyrosinase in B16F10 cells. The note with it: 10 μg to 1 pg, versus control group, FIG. 8. The procedure: as §1

Assay [5] relates to Sk-mel-31, a human melanoma cell. Kind of assay: Melanin production in Sk-mel-31 cells. The note with it: human melanoma cell line; versus control group; FIG. 10. The procedure:
as §2, §3

In assay [6] the test system is tyrosinase. Kind of assay: Expression of tyrosinase in B16F10 cells by Western blotting. The note with it: mouse melanoma cell line; versus control group; FIG. 9. The protocol: as §4

Molecules are shown by their SMILES.

With `[Dy]` [Dy, dysprosium], the tyrosinase activity result at tyrosinase [1] and on tyrosinase [4] was “substantially the same effect as mixed rare earth elements” throughout. Besides, the melanin production result in assay [2] and in assay [5] was “substantially the same effect” in each case. The expression of tyrosinase result in the assay on tyrosinase [3] and in the assay with tyrosinase [6] was “substantially the same effect” each time.
In the case of `[Er]` [Er, erbium], the tyrosinase activity entry on tyrosinase [1] and at tyrosinase [4] was “substantially the same effect as mixed rare earth elements” throughout. Moreover, the melanin production entry in assay [2] and in assay [5] was “substantially the same effect” in each case. Besides, the expression of tyrosinase result with tyrosinase [3] and in the assay on tyrosinase [6] was “substantially the same effect” throughout.
With `[Ho]` [Ho, holmium], the tyrosinase activity result on tyrosinase [1] and on tyrosinase [4] was “substantially the same effect as mixed rare earth elements” throughout. In addition, the melanin production result in assay [2] and in assay [5] was “substantially the same effect” each time. In addition, the expression of tyrosinase entry in the assay with tyrosinase [3] and with tyrosinase [6] was “substantially the same effect” each time.
Regarding `[Pm]` [Pm, promethium], the tyrosinase activity entry at tyrosinase [1] and on tyrosinase [4] was “substantially the same effect as mixed rare earth elements” in each case. In addition, the melanin production entry in assay [2] and in assay [5] was “substantially the same effect” throughout. Further, the expression of tyrosinase entry in the assay with tyrosinase [3] and in the assay with tyrosinase [6] was “substantially the same effect” throughout.
Consider `[Pr]` [Pr, praseodymium], for which the tyrosinase activity entry on tyrosinase [1] and at tyrosinase [4] was “substantially the same effect as mixed rare earth elements” in each case. Besides, the melanin production entry in assay [2] and in assay [5] was “substantially the same effect” each time. Further, the expression of tyrosinase entry in the assay on tyrosinase [3] and in the assay on tyrosinase [6] was “substantially the same effect” in each case.
As to `[Sc]` [Sc, scandium], the tyrosinase activity entry on tyrosinase [1] and at tyrosinase [4] was “substantially the same effect as mixed rare earth elements” each time. Further, the melanin production result in assay [2] and in assay [5] was “substantially the same effect” each time. Besides, the expression of tyrosinase entry with tyrosinase [3] and with tyrosinase [6] was “substantially the same effect” in each case.
`[Tb]` [Tb, terbium]: the tyrosinase activity result at tyrosinase [1] and on tyrosinase [4] was “substantially the same effect as mixed rare earth elements” each time. The melanin production entry in assay [2] and in assay [5] was “substantially the same effect” in each case. Further, the expression of tyrosinase entry in the assay on tyrosinase [3] and with tyrosinase [6] was “substantially the same effect” in each case.
With `[Tm]` [Tm, thulium], the tyrosinase activity entry at tyrosinase [1] and at tyrosinase [4] was “substantially the same effect as mixed rare earth elements” throughout. The melanin production result in assay [2] and in assay [5] was “substantially the same effect” throughout. In addition, the expression of tyrosinase result with tyrosinase [3] and in the assay on tyrosinase [6] was “substantially the same effect” throughout.
With `[Y]` [Y, yttrium], the tyrosinase activity result on tyrosinase [1] and at tyrosinase [4] was “substantially the same effect as mixed rare earth elements” in each case. For the same compound, the melanin production result in assay [2] and in assay [5] was “substantially the same effect” each time. In addition, the expression of tyrosinase result in the assay with tyrosinase [3] and with tyrosinase [6] was “substantially the same effect” throughout.
In the case of `[Yb]` [Yb, ytterbium], the tyrosinase activity entry at tyrosinase [1] and at tyrosinase [4] was “substantially the same effect as mixed rare earth elements” in each case. Also, the melanin production entry in assay [2] and in assay [5] was “substantially the same effect” each time. The expression of tyrosinase entry in the assay with tyrosinase [3] and with tyrosinase [6] was “substantially the same effect” each time.

The values are drawn from patent US8715714B2, “Uses of rare earth elements for hair improvement” (Micellbio Co., Ltd., priority 2006, dated 2014).
